TGI data for 7 molecules are collected here from PubChem BioAssay (NCI).

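1) Cells in 96-well plates. 2) Compound, 48 h, 5 concentrations. 3) Linear interpolation between surrounding doses. 4) Unreached endpoint = highest concentration. TGI: concentration producing complete growth inhibition.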 Where only a bound is given, the exact number is not on record here.

The TGI is the concentration at which net growth stops. A high value points to lower sensitivity of the cells.

Test systems include OVCAR-3 ovarian; OVCAR-8 ovarian; KM12 colon; NCI-H522 lung; HCT-15 colon; UO-31 renal; MALME-3M melanoma; CCRF-CEM leukemia; SK-MEL-2 melanoma; SW-620 colon; LOX IMVI melanoma; SK-OV-3 ovarian; HOP-92 NSCLC; TK-10 renal; ACHN renal; SK-MEL-28 melanoma; HS 578T breast; UACC-257 melanoma; SK-MEL-5 melanoma; IGROV1 ovarian.
Holding throughout (test): DTP human tumour cell line panel, 48 h

As to `Cc1ccc2c(=O)cc(-c3cc(C)sc3C)[nH]c2n1`, the TGI was 58.6 µM in the test with OVCAR-3 ovarian; > 37.3 µM in the test with OVCAR-8 ovarian; > 100 µM in the test on KM12 colon; > 22.2 µM with NCI-H522 lung; > 100 µM with HCT-15 colon; > 100 µM in the test with UO-31 renal. Besides, the TGI was > 100 µM in the test on MALME-3M melanoma; > 25.5 µM with CCRF-CEM leukemia; > 29.6 µM in the test with SK-MEL-2 melanoma; 19.4 µM in the test on SW-620 colon; > 58.8 µM in the test on LOX IMVI melanoma; > 82.7 µM with SK-OV-3 ovarian. Further, the TGI in the test on HOP-92 NSCLC was > 100 µM; in the test with TK-10 renal, > 100 µM; in the test with ACHN renal it was > 100 µM; in the test with SK-MEL-28 melanoma it was > 100 µM; in the test with HS 578T breast it was 7.15 µM; with UACC-257 melanoma, > 100 µM. Besides, the values for the TGI in the test with SK-MEL-5 melanoma and in the test with IGROV1 ovarian were 16.4 µM and > 100 µM, respectively.

Turning to `CC(C)(C)OC(=O)/N=C/c1c(O)c2ccccc2oc1=O`, the TGI in the test on OVCAR-3 ovarian was > 100 µM; in the test on OVCAR-8 ovarian it was > 100 µM; with KM12 colon, > 100 µM; with NCI-H522 lung it was 0.0208 µM; in the test on HCT-15 colon, > 100 µM; with UO-31 renal, > 100 µM. Besides, the TGI is > 100 µM in the test on MALME-3M melanoma; > 100 µM in the test with CCRF-CEM leukemia; 45.2 µM in the test with SK-MEL-2 melanoma; > 100 µM in the test on SW-620 colon; > 100 µM in the test with LOX IMVI melanoma; 0.0852 µM in the test on SK-OV-3 ovarian. Besides, the TGI in the test with HOP-92 NSCLC was > 100 µM; in the test on TK-10 renal, 66.7 µM; in the test on ACHN renal, > 100 µM; in the test with SK-MEL-28 melanoma it was > 100 µM; in the test on HS 578T breast, 65.9 µM; in the test with UACC-257 melanoma, > 100 µM. Besides, the TGI in the test with SK-MEL-5 melanoma and with IGROV1 ovarian was > 100 µM throughout.

With `Cc1nc2ccccc2n1Cc1nnc(-c2ccccc2)o1`, the TGI in the test on OVCAR-3 ovarian, in the test with OVCAR-8 ovarian, with KM12 colon, with NCI-H522 lung, in the test with HCT-15 colon and with UO-31 renal was > 100 µM in each case. The TGI with MALME-3M melanoma, in the test on CCRF-CEM leukemia, with SK-MEL-2 melanoma, in the test with SW-620 colon, in the test with LOX IMVI melanoma and in the test on SK-OV-3 ovarian was > 100 µM in each case. The total growth inhibition concentration (TGI) in the test with HOP-92 NSCLC, with TK-10 renal, in the test on ACHN renal, with SK-MEL-28 melanoma, in the test on HS 578T breast and in the test with UACC-257 melanoma was > 100 µM in each case. Also, the TGI in the test on SK-MEL-5 melanoma and with IGROV1 ovarian was > 100 µM in each case.

Consider `COc1ccc(NC(=S)c2ccc([N+](=O)[O-])o2)cc1`, for which the TGI in the test with OVCAR-3 ovarian turned out to be 4.42 µM; in the test with OVCAR-8 ovarian it was 13.1 µM; in the test with KM12 colon, 3.55 µM; in the test on NCI-H522 lung, 2.92 µM; in the test with HCT-15 colon, 3.56 µM; in the test on UO-31 renal, 5.09 µM. Further, the concentration for total growth inhibition (TGI) in the test with MALME-3M melanoma came to 7.83 µM; with CCRF-CEM leukemia, 8.66 µM; in the test with SK-MEL-2 melanoma, 4.15 µM; in the test on SW-620 colon, 2.9 µM; with LOX IMVI melanoma, 4.33 µM; with SK-OV-3 ovarian it was 25.7 µM. In addition, the TGI is 30.6 µM with HOP-92 NSCLC; 9.84 µM in the test on TK-10 renal; 5.42 µM with ACHN renal; 12.5 µM with SK-MEL-28 melanoma; > 43.1 µM in the test with HS 578T breast; 7.2 µM with UACC-257 melanoma. Besides, the TGI in the test with SK-MEL-5 melanoma was determined as 13.1 µM; in the test with IGROV1 ovarian it was 8.56 µM.

With `CCOc1ccc(NC(=O)C(=O)C(/C(=N/N)C(=O)OC)c2nc3ccc([N+](=O)[O-])cc3[nH]c2=O)cc1` (stereo not drawn), the total growth inhibition concentration (TGI) in the test with OVCAR-3 ovarian, with OVCAR-8 ovarian, in the test with KM12 colon, with NCI-H522 lung, with HCT-15 colon and in the test with UO-31 renal was > 100 µM in each case. Besides, the concentration for total growth inhibition (TGI) in the test with MALME-3M melanoma, with CCRF-CEM leukemia, in the test on SK-MEL-2 melanoma, with SW-620 colon, with LOX IMVI melanoma and in the test with SK-OV-3 ovarian was > 100 µM each time. The TGI in the test on HOP-92 NSCLC, in the test on TK-10 renal, in the test with ACHN renal, with SK-MEL-28 melanoma, in the test with HS 578T breast and in the test on UACC-257 melanoma was > 100 µM in each case. Besides, the TGI in the test with SK-MEL-5 melanoma and with IGROV1 ovarian was > 100 µM in each case.

Consider `CCCN1C(=O)CN(S(=O)(=O)c2ccc(Cl)cc2)C1=O`, for which the TGI in the test with OVCAR-3 ovarian, in the test on KM12 colon, with NCI-H522 lung, in the test on HCT-15 colon, in the test with UO-31 renal and in the test with MALME-3M melanoma was > 100 µM throughout. Further, the TGI in the test on CCRF-CEM leukemia, in the test on SK-MEL-2 melanoma, in the test on SW-620 colon, in the test on LOX IMVI melanoma, in the test with SK-OV-3 ovarian and in the test with HOP-92 NSCLC was > 100 µM each time. Further, the TGI in the test with TK-10 renal, in the test with ACHN renal, in the test on SK-MEL-28 melanoma, in the test with HS 578T breast, in the test with UACC-257 melanoma and in the test on SK-MEL-5 melanoma was > 100 µM throughout. In addition, the TGI with IGROV1 ovarian was > 100 µM.

`COc1ccc(/C=C2\C[C@H]3[C@@H]4CC=C5C[C@@H](O)CC[C@]5(C)[C@H]4CC[C@]3(C)\C2=N\O)cc1`: the TGI in the test on OVCAR-3 ovarian was 29.7 µM; with KM12 colon, > 100 µM; in the test on NCI-H522 lung, 50 µM; with HCT-15 colon it was > 100 µM; with UO-31 renal it was 71.6 µM; in the test with MALME-3M melanoma, 76.6 µM. Also, the TGI in the test with CCRF-CEM leukemia is > 100 µM; in the test with SK-MEL-2 melanoma, 39.8 µM; in the test on SW-620 colon, > 100 µM; with LOX IMVI melanoma it was 33.3 µM; in the test with SK-OV-3 ovarian, > 100 µM; with HOP-92 NSCLC it was > 100 µM. The TGI with TK-10 renal is > 100 µM; in the test with ACHN renal it was > 100 µM; in the test on SK-MEL-28 melanoma it was 72.8 µM; in the test with HS 578T breast, 37.5 µM; with UACC-257 melanoma, 45.7 µM; in the test on SK-MEL-5 melanoma it was 23.3 µM. In the test on IGROV1 ovarian, this molecule gave a TGI of 96.2 µM.
